Data: patent US20230301933A1 (priority 2020, published 2023)
Where two headings read alike, the source gives them in different places.

Tests used:
Virus Induced Pneumonia = tested on: Virus Induced Pneumonia
Description: Subject 1 was a person, weight 85 kg, pre-condition asthma. […] Pre-treatment history:
Self-treatment with Ventolin and paracetamol. […] Sixth day. […] Patient thinks that the problem is serious, and contacts GP.
Treatment started for 9 consecutive days by four subcutaneous injections of a 0.06 w/w % phenol in physiological saline daily administered in: 1 and 2) the posterior margin of the sternocleidomastoid muscle on the level of the larynx knot at both left and right side of the body, each about 1 cm deep; 3) the middle of the upper socket of the sternum about 0.5 cm deep, and 4) the depression below the spinous process of the 7th cervical vertebra, about 0.5 cm deep. First day of treatment is set as ‘Day 1’

Flu Pneumonia = settings: human, in vivo
[1] = Experimental: In an particularly attractive embodiment, the phenol is injected subcutaneously, i.e. in the soft tissue below the skin with a depth of up to 0.5-2.0 cm.
In another attractive embodiment, the phenol is administered intravenously.

Early Stage CoViD-19 = tested on: Early Stage CoViD-19
Description: Subject 2, suffering early stage CoViD-19. Former professional sportsman (soccer), doesn't smoke, no alcohol, weight 75 kg. Pre-treatment history. […] Came to GP for treatment.
Treatment for four consecutive days of four subcutaneous injections as described for patient 1. First day of treatment is set as ‘Day 1’.

[2] = insulin comprising 0.2 to 1.0 mg per dose phenol as preservative; cited from earlier work
Critical Stage Covid-19 = tested on: Critical Stage Covid-19
Experimental: Treated with concentration phenol 0.01% in 60 ml, drip infusion 20 minutes, once daily.
Day 6 lowered dose to 0.01% concentration in 30 ml. Stopped treatment after treatment day 9.

MRSA Lung Infection = tested on: MRSA Lung Infection
Experimental: Person, 88 kg, dyspnoea, cough, chest pain and fever, under urine catheter. Has used different antibiotic before and after operation prostate cancer and by lung infection.
Phenol reduce to 0.02% 15 ml. duration 10 minutes for 5 more days.

[3] = Day 1 (first day of treatment), four s.c. injections 0.06 w/w % phenol daily
[4] = at end of treatment (3 days normal body temperature), phenol 0.01% drip infusion once daily
[5] = day1, phenol 0.02% (in 30 ml), drip 15 minutes
[6] = day2, phenol 0.02% (in 30 ml), drip 15 minutes
[7] = day3, phenol 0.02% (in 30 ml), drip 15 minutes
[8] = day4, phenol 0.02% (in 30 ml), drip 15 minutes
[9] = day5, phenol 0.02% (in 30 ml), drip 15 minutes
[10] = day6, phenol 0.02% (in 15 ml), drip 10 minutes
[11] = day7, phenol 0.02% (in 15 ml), drip 10 minutes
[12] = day8, phenol 0.02% (in 15 ml), drip 10 minutes
[13] = day9, phenol 0.02% (in 15 ml), drip 10 minutes

For Oc1ccccc1 [phenol], the “Side effects after injection” value (Virus Induced Pneumonia; 9 consecutive days of s.c. injections) was “slight headache, no other side effect after injection”, the Temperature (Virus Induced Pneumonia; [3]) was 38.1 °C and the Short breath (Virus Induced Pneumonia; Day 2) was “Limited feeling of short breath and asthma”. For the same molecule, the Temperature (Virus Induced Pneumonia; Day 2, four s.c. injections 0.06 w/w % phenol daily) was 37.6 °C, the Short breath (Virus Induced Pneumonia; Day 3) was “Less short breath” and the Temperature (Virus Induced Pneumonia; Day 3) was 37.4 °C. For the same molecule, the Short breath (Virus Induced Pneumonia; Day 4) was “Short breath much better”, the Temperature (Virus Induced Pneumonia; Day 4) was 37.4 °C and the Short breath (Virus Induced Pneumonia; Day 5) was “Short breath slightly better”. For the same molecule, the Temperature (Virus Induced Pneumonia; Day 5) was 37.4 °C, the Short breath (Virus Induced Pneumonia; Day 6) was “No more short breath” and the Temperature (Virus Induced Pneumonia; Day 6) was 37.0 °C. The Breathing (Virus Induced Pneumonia; Day 7) was “Breathing normal”, the Fever (Virus Induced Pneumonia; Day 7) was “No fever” and the Fever (Virus Induced Pneumonia; Day 8) was “No fever”. For the same molecule, the Breathing (Flu Pneumonia) was “breaths quietly”, the Patient outcome (Flu Pneumonia) was “physical recovered with some cough” and the X-lung infiltrate (Flu Pneumonia) was “much improved”. The “Fever (temperature)” value (Flu Pneumonia; iv) was 36.8-37.5 °C, the Heartbeat (Flu Pneumonia; iv) was “about 90 per minute” and the “Duration of immediate effect” value ([1]; intravenous administration) was 7 to 14 days. The “Time phenol may remain in the body” value ([1]; intravenous administration) was “about 24 hours”, the “Duration of immediate effect” value ([1]; subcutaneous injection) was “about 7 days” and the “Time phenol may remain in the body” value ([1]; subcutaneous injection) was “about 24 hours”. The Temperature (Early Stage CoViD-19; [3]) was 38.4 °C, the Temperature (Early Stage CoViD-19; Day 2) was 37.2 °C and the Temperature (Early Stage CoViD-19; Day 3) was 36.8 °C. The Temperature (Early Stage CoViD-19; Day 4) was “normal”, the Temperature (Early Stage CoViD-19; Day 5) was “normal” and the “Duration of slight headache after treatment” value (Early Stage CoViD-19; after first treatment) was “about four”. The “Time the slight cough remained” value (Early Stage CoViD-19; counted from Day 5, then fully gone) was 5 days, the Side effects (Early Stage CoViD-19; four consecutive days of s.c. injections) was “No other side effects noted” and the Injection location reaction (Early Stage CoViD-19; s.c. injection) was “slight pain at injection”. The “Accumulation of phenol in the body by daily use” value [2] was “no significant accumulation”, the R/R (Critical Stage Covid-19; [4]) was 20 and the SPO2 (Critical Stage Covid-19; [4]) was 97%. The R/R (Critical Stage Covid-19; [5]) was 41, the SpO2 (Critical Stage Covid-19; [5]) was 91% and the body temperature (Critical Stage Covid-19; [5]) was 37.6 °C. For the same molecule, the R/R (Critical Stage Covid-19; [6]) was 32, the SpO2 (Critical Stage Covid-19; [6]) was 93% and the body temperature (Critical Stage Covid-19; [6]) was 38.6 °C. The R/R (Critical Stage Covid-19; [7]) was 27, the SpO2 (Critical Stage Covid-19; [7]) was 94% and the body temperature (Critical Stage Covid-19; [7]) was 38.5 °C. It also gave a R/R (Critical Stage Covid-19; [8]) of 23, a SpO2 (Critical Stage Covid-19; [8]) of 96% and a body temperature (Critical Stage Covid-19; [8]) of 38.0 °C. It also gave a R/R (Critical Stage Covid-19; [9]) of 22, a SpO2 (Critical Stage Covid-19; [9]) of 96% and a body temperature (Critical Stage Covid-19; [9]) of 37.4 °C. The “day 6 evaluation: breathing” value (Critical Stage Covid-19; day 6) was “day 6 evaluation patient breaths normally, still stress, coughing, feels good, day 6 started walking (with infusion)”, the “temperature, R/R, SpO2” value (Critical Stage Covid-19; day 6) was “normal” and the R/R (Critical Stage Covid-19; [10]) was 20. The SpO2 (Critical Stage Covid-19; [10]) was 97%, the body temperature (Critical Stage Covid-19; [10]) was 37.0 °C and the R/R (Critical Stage Covid-19; [11]) was 20. It also gave a SpO2 (Critical Stage Covid-19; [11]) of 97%, a body temperature (Critical Stage Covid-19; [11]) of 36.8 °C and a R/R (Critical Stage Covid-19; [12]) of 20. For the same molecule, the SpO2 (Critical Stage Covid-19; [12]) was 97%, the body temperature (Critical Stage Covid-19; [12]) was 36.9 °C and the “day 9 evaluation: body temperature” value (Critical Stage Covid-19; day 9) was “day 9 evaluation patients three days normal body temperature”. The R/R (Critical Stage Covid-19; [13]) was 18, the SpO2 (Critical Stage Covid-19; [13]) was 97% and the body temperature (Critical Stage Covid-19; [13]) was 36.8 °C. The “Time after start of treatment at which improvement of R/R and SpO2 was measured” value (Critical Stage Covid-19; drip infusion once daily) was 6 h, the “X-lung: pneumonia” value (MRSA Lung Infection; Day 18th) was “almost recovered” and the “Fever (temperature), reduced from 38.0” value (MRSA Lung Infection; after 0.02% phenol 30 ml infusion once per day for 3 days) was 37.4 °C. For the same molecule, the Temperature (MRSA Lung Infection; during 0.02% phenol 15 ml, 10 minutes, for 5 more days) was “under 37 °C”.
